Laboratory results taken from patent US9399635B2, “Pyrazole derivative” (GREEN TECH CO., LTD., priority 2011, dated 2016).
Like-named read-outs stand apart in the source and are kept apart here.

Key:
[1] = biological target: T1, recombinant human β-secretase (Homo sapiens, UniProt P56817); assay: Determination of β-secretase inhibitory activity (BACE-1 FRET assay Kit); assay type: biochemical; details: recombinant human β-secretase, fluorescent substrate peptide, 1 hour; read-out: IC50 (μM) Test example 2 (β-secretase inhibitory activity)
T1 construct: purchased Invitrogen
T1 sequence (P56817 46-501): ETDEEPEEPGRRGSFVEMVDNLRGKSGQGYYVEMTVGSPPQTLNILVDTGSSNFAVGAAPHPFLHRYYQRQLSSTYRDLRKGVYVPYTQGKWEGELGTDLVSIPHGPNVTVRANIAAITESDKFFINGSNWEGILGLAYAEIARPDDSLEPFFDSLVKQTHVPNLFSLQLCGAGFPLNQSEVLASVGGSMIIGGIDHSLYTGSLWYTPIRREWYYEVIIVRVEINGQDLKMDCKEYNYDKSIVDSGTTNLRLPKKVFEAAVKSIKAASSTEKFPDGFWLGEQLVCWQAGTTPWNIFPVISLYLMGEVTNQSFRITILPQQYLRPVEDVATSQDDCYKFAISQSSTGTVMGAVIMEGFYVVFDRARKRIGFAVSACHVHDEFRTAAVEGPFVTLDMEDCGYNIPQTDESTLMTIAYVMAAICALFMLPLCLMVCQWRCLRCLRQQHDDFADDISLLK
Protocol: Pharmacological Test Example 2: Determination of β-Secretase Inhibitory Activity
The β-secretase inhibitory activity was measured with BACE-1 FRET assay Kit (Invitrogen). The test compounds were prepared using DMSO at 30-fold of their final concentrations and dissolved so that the DMSO concentration would be 10%. To each of the solutions, an equal volume of a recombinant human β-secretase (1 U/mL) dissolved in the assay buffer and an equal volume of fluorescent substrate peptide (2.5 nM) were added and the solutions were left to stand for 1 hour. The fluorescence intensity was measured with a fluorescence plate reader (excitation wavelength: 545 nm; emission wavelength: 590 nm).
The final concentration of each compound at the time of measurement was set at 0.1, 0.3, 1, 3, and 10 μM, at 0.3, 1, 3, 10, and 30 μM, or at 1, 3, 10, 30, and 100 μM.

[2] = biological target: T2, Aβ 1-42 (Homo sapiens, UniProt P05067); assay: Determination of Aβ aggregation inhibitory activity (thioflavin T fluorescence); assay type: biochemical; details: Aβ 1-42, 37° C. for 24 hours, thioflavin T; read-out: IC50 (μM) Test example 3 (Aβ aggregation inhibitory activity)
T2 construct: Aβ 1-42 (Peptide Institute, Inc.) was dissolved in 0.3% ammonia water; purchased Peptide Institute, Inc
T2 sequence (P05067 672-713): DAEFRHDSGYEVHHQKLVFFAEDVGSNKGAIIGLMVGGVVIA
Protocol: Pharmacological test example 3: Determination of Aβ aggregation inhibitory activity
Aβ 1-42 (Peptide Institute, Inc.) was dissolved in 0.3% ammonia water so that the concentration would be 0.5 mM and then diluted with PBS to 20 μM. The test compounds were prepared using DMSO at 100-fold of their final concentrations and adjusted so that the DMSO concentration would be 2%. The Aβ solution and each of the test compound solutions were mixed at an equivalent ratio and the mixtures were incubated at 37° C. for 24 hours. To each of the mixtures, an equal volume of a thioflavin T solution adjusted with a 100 mM Tris-glycine buffer (pH 8.5) to 6 μM was added. The fluorescence intensity was measured with a fluorescence plate reader (excitation wavelength: 440 nm; emission wavelength: 480 nm).
The final concentration of each compound at the time of measurement was set at 0.1, 0.3, 1, 3, and 10 μM. The sample to which only DMSO was added was used as a negative control and its fluorescence intensity was taken as 0% inhibitory activity.

[3] = Evaluation of in vivo pharmacokinetics (blood and brain concentrations, LC-MS/MS); details: SD rats
Protocol: Pharmacological test example 4: Evaluation of in vivo pharmacokinetics
To SD rats (male, 7 weeks old), the test compound was orally administered (p. o.) at an amount of 50 mg/kg bw or intravenously administered (i.v.) at an amount of 1 mg/kg bw and the concentrations in the blood and brain were measured up to 3 hours. The administration vehicle was an 80% PEG 400 aqueous solution. The blood was collected under isoflurane inhalational anesthesia and the brain was harvested after the rats were sacrificed. The plasma was separated from the blood. The brain was homogenized after addition of a three-fold volume of PBS and then methanol was added thereto. Thus the prepared test samples were subjected to measurement. The measurement was performed by LC-MS/MS (Applied Biosystems and Waters).
The blood concentration changes of the compounds of Example 2 and Example 2 (2) ((1E,6E)-1-(1H-indol-6-yl)-7-[2-methoxy-4-(2-pyridylmethoxy)phenyl]hepta-1,6-diene-3,5-dione) after oral administration (p.o.) thereof are shown in FIG. 2. The brain concentration changes of the compounds after intravenous administration (i.v.) and oral administration (p.o.) thereof are shown in Table 2.

## COc1cc(OCc2ccccn2)ccc1/C=C/c1cc(/C=C/c2ccc3cc[nH]c3c2)[nH]n1 [Example 2, 3-[(1E)-2-(1H-indol-6-yl)ethenyl]-5-[(1E)-2-[2-methoxy-4-(2-pyridylmethoxy)phenyl]ethenyl]-1H-pyrazole]
[1]
  IC50: 3 µM
[2]
  IC50: 1.5 µM
[3]; p.o. 50 mg/kg bw or i.v. 1 mg/kg bw (FIG. 2, Table 2)
  blood and brain concentrations compared with the compound of Example 2 (2): higher blood and brain concentrations
[3]; male, rat, intravenous 1 mg/kg bw, 5 min, brain, read-out: brain concentration i.v. 5 min
  concentration at 5 min: 48.7 ng/mL
[3]; male, rat, intravenous 1 mg/kg bw, brain, read-out: brain concentration i.v. 180 min
  concentration at 180 min: 17.5 ng/mL
[3]; male, rat, oral 50 mg/kg bw, 60 min, brain, read-out: brain concentration p.o. 60 min
  concentration at 60 min: 8.54 ± 2.93 ng/mL
[3]; male, rat, oral 50 mg/kg bw, brain, read-out: brain concentration p.o. 180 min
  concentration at 180 min: 68.9 ± 39.4 ng/mL
